Where a SMILES comes first, the peptide text is derived from it.
Columns and labels:
[1] = test system: HUVEC; format: cell-based, human
Description: 2× 10^3 HUVEC and 4T1 cell-line were cultured in DMEM medium supplemented with 10% FBS at 37 °C with 5% CO2 in 96-well plate. After 24 h, The cells were incubated in the media supplemented with 2% FBS, different concentrations (0, 0.015, 0.03, 0.061 μM) of VGB3 in the presence of (0.03 μg.ml^-1) VEGF-A (Sigma, St. Louis, MO) for 24 and 48 respectively. Then, cell proliferation was quantified by 3-(4,5–dimethylthiazol-2-yl)-2 ,5-diphenyl tetrazolium bromide (MTT) (Sigma, St. Louis, MO) solution (5 mg/mL) in PBS (pH 7.4) was added to each well and the plates were incubated in the dark at 37 °C for 4 h. Then the insoluble purple formazan product was dissolved by dimethyl sulfoxide (DMSO). Absorbance was measured at 570 nm using an ELISA plate reader. The assay was performed in triplicate.

[2] = test system: HUVEC; test: Wound healing assay (HUVEC migration); format: cell-based, human; details: compared with control; VGB3 0, 0.015, 0.03, 0.061 μM, 0.03 μg/ml VEGF-A, 2% FBS, 24 h
Description: 3 × 10^3 HUVECs were grown to confluence in 96-well plate. The monolayer was mechanically wounded using a sterile pipette tip followed by washing with PBS. The cells were incubated in the serum-starved DMEM medium containing 2% FBS and different concentrations (0, 0.015, 0.03, 0.061 μM) of VGB3 in the presence of (0.03 μg.ml^-1) VEGF-A for 24 h. Then HUVECs were washed with PBS two times and fixed using 4% paraformaldehyde at room temperature. After staining the cells with Giemsa, photographs were taken under a microscope (scale bar: 20 μm; Olympus BX-51, Japan) immediately and after 24 h incubation at the same location. Data are expressed as the average percentage wound closure for each group (n=6) of initial migrated cells at time 0 (T0), or as the percentage inhibition compared with a time-matched control. The wound area (the open area of the scratch) was quantified using ImageJ: (1 - (wound area at 24 h / wound area at 0 h))×100.

[3] = test system: 4T1 mammary carcinoma tumor; test: In vivo antitumor efficacy, 4T1 mammary carcinoma tumor model; design: species or system Female BALB/c mice
Description: Female BALB/c mice (5–7 weeks) were purchased from the Laboratory Animal Center of the Iran Pasteur Institute and maintained under standardized environmental conditions: 12 h light-dark phases, with free access to food and water. For treatment with VGB3, Tumor cells (4T1; 1×10^6 cells/500 μl or 1×10^5 cells/50 μl) were injected subcutaneously into the right flanks of mice (n=3–5). To generate the metastatic model, 4T1 tumor models were sterilized, excised from the breast cancer-bearing BALB/c mice, cut into pieces of <0.3 cm3, and subcutaneously implanted into the animals' right flanks under ketamine (100 mg/kg, i.p.) and xylazine (10 mg/kg, i.p.) anesthesia. Animals carrying tumors of size ~100mm3 were randomized to 6 mice/group (n=6). The treatment groups received 0.02, 0.1, 0.2 or 0.5 mg/kg of VGB3 on alternate days and the control group received PBS i.v. into the mice for 19 days from day 13. The tumor volume was measured every 5 days by a digital Vernier caliper (Mitutoyo, Japan), using the following formula: v=a^2×b×0.52 (where a is the shortest and b is the longest diameter). All studies were performed under the guidelines and with the approval of the Institutional Animal Care and Use Committee (IACUC) of Tehran University of Medical Sciences.

[4] = test system: human extracellular domains (ECD) of VEGFR1D2; test: ELISA-based displacement assay (VEGF-A/VEGFR-1 interaction); format: binding; details: at 100 μM VGB3; btVEGF165 100 pM; plate coated with VEGFR1D2 ECD 20 ng/well, 5 nM; PBS; peptide 45 min at 37 °C then 2 h with btVEGF-A165; chemiluminescence; triplicate wells
Description: A white flat-bottom high-binding 96-well plate (COSTAR 3922) was coated with human extracellular domains (ECD) of VEGFR1D2 (R&D Systems, Abingdon, UK) in PBS (20 ng/well, 5 nM) overnight at 4 °C. The plate was washed twice with 200 μL of wash buffer (PBS containing 0.1% (v/v) Tween 20) and treated with 200 μL of blocking buffer (PBS containing 3% (w/v) BSA) at 37 °C for 2 h, followed by two washes with wash buffer. Volumes of 50 μL of peptide VGB3 solution at twice the desired final concentration in PBS were added in triplicate wells and the plate was kept at 37 °C for 45 min. A solution of btVEGF-A165 (R & D Systems, Abingdon, UK) at twice the desired final concentration (100 pM) in 50 μL PBS was added. After 2 h incubation, the plate was washed two times with wash buffer. […] Volumes of 100 μL of Supersignal West Pico Chemiluminescent Substrate (Pierce, Rockford, IL, USA) were finally added and the chemiluminescence was quantified with a TECAN spectrophotometer plate-reader. The percentages of displacement were calculated by the following formula: 100×[1 – (S − NS)/(MS – NS)] where S is the signal measured, NS is the nonspecific binding signal defined as the signal measured in the absence of coated receptor on the microplate, and MS is the maximum binding signal obtained with btVEGF-A165 without the peptide VGB3.

CC(C)C[C@@H]1NC(=O)CNC(=O)[C@H](CC(=O)O)NC(=O)[C@H](CC(=O)O)NC(=O)[C@@H]2CCCN2C(=O)[C@@H]2CCCN2C(=O)[C@H](CCCNC(=N)N)NC(=O)[C@@H](NC(=O)[C@@H](N)CCC(=O)O)CSSC[C@@H](C(=O)O)NC1=O [VGB3] (HELM PEPTIDE1{E.C.R.P.P.D.D.G.L.C}$PEPTIDE1,PEPTIDE1,2:R3-10:R3$$$V2.0)
IC50 ([1]; 48 h): 30 nM
inhibition of endothelial cell proliferation compared with other reported VEGF-B based peptides ([1]; comparison with refs 2,4,5): more effectively inhibited endothelial cell proliferation
inhibition of endothelial cell proliferation compared with clinically used drugs such as Bevacizumab ([1]; endothelial cell culture conditions, comparison with refs 2,4,5): more potent
migration of wounded HUVEC monolayers [2]: inhibits migration of wounded HUVEC monolayers compared with the control
inhibitory effects on tumor growth and angiogenesis compared with bevacizumab ([3]; VGB3 0.2 mg/kg i.v. once in every 2 days vs reported bevacizumab 2 mg/kg, twice per week): definitely higher
tumor growth inhibition vs PBS control ([3]; i.v., alternate days, 19 days from day 13, n = 6, dose of the statement not specified): Significant inhibition of tumor growth
displacement of btVEGF165 [4]: up to 63%

Reference: publication PMC7272640, “Molecular docking, synthesis and biological evaluation of Vascular Endothelial Growth Factor (VEGF) B based peptide as antiangiogenic agent targeting the second domain of the Vascular Endothelial Growth Factor Receptor 1 (VEGFR1D2) for anticancer application” (Signal Transduction and Targeted Therapy, 2020)
